#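 The compound was tested at five concentrations on cells cultured in 96-well plates, with a 48-hour exposure period. TGI marks complete inhibition of growth.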
# Experiments:
# Assay in all cases: inhibition of tumour cell growth, NCI panel, 48 h
# SNB-78 CNS = test system: SNB-78 CNS
# OVCAR-8 ovarian = test system: OVCAR-8 ovarian
# COLO 205 colon = test system: COLO 205 colon
# UACC-62 melanoma = test system: UACC-62 melanoma
# OVCAR-4 ovarian = test system: OVCAR-4 ovarian
# K-562 leukemia = test system: K-562 leukemia
# SF-295 CNS = test system: SF-295 CNS
# CAKI-1 renal = test system: CAKI-1 renal
# SW-620 colon = test system: SW-620 colon
# HCC-2998 colon = test system: HCC-2998 colon
# SK-OV-3 ovarian = test system: SK-OV-3 ovarian
# LOX IMVI melanoma = test system: LOX IMVI melanoma
# ACHN renal = test system: ACHN renal
# HOP-62 NSCLC = test system: HOP-62 NSCLC
# UO-31 renal = test system: UO-31 renal
# HCT-116 colon = test system: HCT-116 colon
# A549 NSCLC = test system: A549 NSCLC
# A498 renal = test system: A498 renal
# DLD-1 colon = test system: DLD-1 colon
# EKVX NSCLC = test system: EKVX NSCLC
# SR leukemia = test system: SR leukemia
# MOLT-4 leukemia = test system: MOLT-4 leukemia
# SF-268 CNS = test system: SF-268 CNS
# OVCAR-3 ovarian = test system: OVCAR-3 ovarian
# SK-MEL-2 melanoma = test system: SK-MEL-2 melanoma
# IGROV1 ovarian = test system: IGROV1 ovarian
# LXFL 529 NSCLC = test system: LXFL 529 NSCLC
# SF-539 CNS = test system: SF-539 CNS
# HCT-15 colon = test system: HCT-15 colon
# SK-MEL-5 melanoma = test system: SK-MEL-5 melanoma
# KM20L2 colon = test system: KM20L2 colon
# SN12C renal = test system: SN12C renal
# KM12 colon = test system: KM12 colon
# 786-0 renal = test system: 786-0 renal
# XF 498 CNS = test system: XF 498 CNS
# TK-10 renal = test system: TK-10 renal
# DMS 114 small cell lung = test system: DMS 114 small cell lung
# MALME-3M melanoma = test system: MALME-3M melanoma
# NCI-H522 lung = test system: NCI-H522 lung
# DMS 273 small cell lung = test system: DMS 273 small cell lung
# NCI-H226 lung = test system: NCI-H226 lung
# SNB-75 CNS = test system: SNB-75 CNS
# CCRF-CEM leukemia = test system: CCRF-CEM leukemia
# SNB-19 CNS = test system: SNB-19 CNS
# M19-MEL melanoma = test system: M19-MEL melanoma
# HL-60(TB) leukemia = test system: HL-60(TB) leukemia
# UACC-257 melanoma = test system: UACC-257 melanoma
# NCI-H460 lung = test system: NCI-H460 lung
# OVCAR-5 ovarian = test system: OVCAR-5 ovarian
# HOP-18 NSCLC = test system: HOP-18 NSCLC
# RPMI-8226 leukemia = test system: RPMI-8226 leukemia
# M14 melanoma = test system: M14 melanoma
# RXF 393 renal = test system: RXF 393 renal
# U251 CNS = test system: U251 CNS
# SK-MEL-28 melanoma = test system: SK-MEL-28 melanoma
# MDA-N = test system: MDA-N
# NCI-H23 lung = test system: NCI-H23 lung
# NCI/ADR-RES ovarian = test system: NCI/ADR-RES ovarian
# DU-145 prostate = test system: DU-145 prostate
# HT29 colon = test system: HT29 colon
# MDA-MB-435 = test system: MDA-MB-435
# HS 578T breast = test system: HS 578T breast
# T-47D breast = test system: T-47D breast
# HOP-92 NSCLC = test system: HOP-92 NSCLC
# BT-549 breast = test system: BT-549 breast
# MCF7 breast = test system: MCF7 breast
# MDA-MB-231 breast = test system: MDA-MB-231 breast
# PC-3 prostate = test system: PC-3 prostate
smiles,measurement,setting,value
O=C(/C=C/c1ccccc1Cl)NC1C=Nc2ccc([N+](=O)[O-])cc2NC1 (stereo not drawn),TGI,SNB-78 CNS,> 100 µM
same,TGI,OVCAR-8 ovarian,> 100 µM
same,TGI,COLO 205 colon,> 100 µM
same,TGI,UACC-62 melanoma,> 100 µM
same,TGI,OVCAR-4 ovarian,> 100 µM
same,TGI,K-562 leukemia,> 100 µM
same,TGI,SF-295 CNS,> 100 µM
same,TGI,CAKI-1 renal,> 100 µM
same,TGI,SW-620 colon,18.2 µM
same,TGI,HCC-2998 colon,> 100 µM
same,TGI,SK-OV-3 ovarian,> 100 µM
same,TGI,LOX IMVI melanoma,> 100 µM
same,TGI,ACHN renal,> 100 µM
same,TGI,HOP-62 NSCLC,> 100 µM
same,TGI,UO-31 renal,> 100 µM
same,TGI,HCT-116 colon,> 100 µM
same,TGI,A549 NSCLC,> 100 µM
same,TGI,A498 renal,> 100 µM
same,TGI,DLD-1 colon,> 100 µM
same,TGI,EKVX NSCLC,> 100 µM
same,TGI,SR leukemia,96.2 µM
same,TGI,MOLT-4 leukemia,49.3 µM
same,TGI,SF-268 CNS,> 100 µM
same,TGI,OVCAR-3 ovarian,> 100 µM
same,TGI,SK-MEL-2 melanoma,> 100 µM
same,TGI,IGROV1 ovarian,> 100 µM
same,TGI,LXFL 529 NSCLC,> 100 µM
same,TGI,SF-539 CNS,> 100 µM
same,TGI,HCT-15 colon,> 100 µM
same,TGI,SK-MEL-5 melanoma,> 100 µM
same,TGI,KM20L2 colon,> 100 µM
same,TGI,SN12C renal,> 100 µM
same,TGI,KM12 colon,> 100 µM
same,TGI,786-0 renal,> 100 µM
same,TGI,XF 498 CNS,> 100 µM
same,TGI,TK-10 renal,> 100 µM
same,TGI,DMS 114 small cell lung,> 100 µM
same,TGI,MALME-3M melanoma,> 100 µM
same,TGI,NCI-H522 lung,> 100 µM
same,TGI,DMS 273 small cell lung,> 100 µM
same,TGI,NCI-H226 lung,> 100 µM
same,TGI,SNB-75 CNS,> 100 µM
same,TGI,CCRF-CEM leukemia,84.8 µM
same,TGI,SNB-19 CNS,> 100 µM
same,TGI,M19-MEL melanoma,> 100 µM
same,TGI,HL-60(TB) leukemia,> 100 µM
same,TGI,UACC-257 melanoma,> 100 µM
same,TGI,NCI-H460 lung,> 100 µM
same,TGI,OVCAR-5 ovarian,> 100 µM
same,TGI,HOP-18 NSCLC,> 100 µM
same,TGI,RPMI-8226 leukemia,> 100 µM
same,TGI,M14 melanoma,> 100 µM
same,TGI,RXF 393 renal,> 100 µM
same,TGI,U251 CNS,> 100 µM
same,TGI,SK-MEL-28 melanoma,> 100 µM
O=C(Oc1cccnc1)c1cc2cc(CCl)ccc2oc1=O,TGI,OVCAR-8 ovarian,> 100 µM
same,TGI,COLO 205 colon,69.5 µM
same,TGI,UACC-62 melanoma,36.9 µM
same,TGI,OVCAR-4 ovarian,60.3 µM
same,TGI,K-562 leukemia,40.6 µM
same,TGI,SF-295 CNS,> 100 µM
same,TGI,CAKI-1 renal,35 µM
same,TGI,SW-620 colon,> 100 µM
same,TGI,HCC-2998 colon,> 100 µM
same,TGI,SK-OV-3 ovarian,> 100 µM
same,TGI,MDA-N,> 100 µM
same,TGI,LOX IMVI melanoma,44.7 µM
same,TGI,NCI-H23 lung,39.5 µM
same,TGI,NCI/ADR-RES ovarian,76.6 µM
same,TGI,ACHN renal,> 100 µM
same,TGI,HOP-62 NSCLC,> 100 µM
same,TGI,UO-31 renal,44.5 µM
same,TGI,HCT-116 colon,38.7 µM
same,TGI,DU-145 prostate,39.5 µM
same,TGI,A549 NSCLC,> 100 µM
same,TGI,A498 renal,> 100 µM
same,TGI,EKVX NSCLC,52.1 µM
same,TGI,SR leukemia,73.6 µM
same,TGI,MOLT-4 leukemia,61.4 µM
same,TGI,SF-268 CNS,45.3 µM
same,TGI,HT29 colon,39.9 µM
same,TGI,OVCAR-3 ovarian,57.9 µM
same,TGI,SK-MEL-2 melanoma,54 µM
same,TGI,IGROV1 ovarian,66.3 µM
same,TGI,SF-539 CNS,> 100 µM
same,TGI,HCT-15 colon,58.5 µM
same,TGI,SK-MEL-5 melanoma,> 100 µM
same,TGI,SN12C renal,50.1 µM
same,TGI,KM12 colon,> 100 µM
same,TGI,786-0 renal,36.1 µM
same,TGI,TK-10 renal,50.8 µM
same,TGI,MALME-3M melanoma,54.9 µM
same,TGI,MDA-MB-435,73 µM
same,TGI,HS 578T breast,55.1 µM
same,TGI,NCI-H522 lung,35.5 µM
same,TGI,NCI-H226 lung,> 100 µM
same,TGI,SNB-75 CNS,79.7 µM
same,TGI,CCRF-CEM leukemia,> 100 µM
same,TGI,T-47D breast,48 µM
same,TGI,SNB-19 CNS,> 100 µM
same,TGI,HL-60(TB) leukemia,58.4 µM
same,TGI,UACC-257 melanoma,98.7 µM
same,TGI,NCI-H460 lung,> 100 µM
same,TGI,OVCAR-5 ovarian,64.6 µM
same,TGI,HOP-92 NSCLC,36.9 µM
same,TGI,RPMI-8226 leukemia,66 µM
same,TGI,M14 melanoma,53.1 µM
same,TGI,RXF 393 renal,31.5 µM
same,TGI,BT-549 breast,53.7 µM
same,TGI,MCF7 breast,11.3 µM
same,TGI,MDA-MB-231 breast,43.2 µM
same,TGI,PC-3 prostate,32.9 µM
same,TGI,U251 CNS,57.2 µM
same,TGI,SK-MEL-28 melanoma,> 100 µM
c1ccc([P+](CC[P+](c2ccccc2)(c2ccccc2)c2ccccc2)(c2ccccc2)c2ccccc2)cc1,TGI,OVCAR-8 ovarian,> 100 µM
same,TGI,COLO 205 colon,24.9 µM
same,TGI,UACC-62 melanoma,> 100 µM
same,TGI,OVCAR-4 ovarian,> 100 µM
same,TGI,K-562 leukemia,> 100 µM
same,TGI,SF-295 CNS,> 100 µM
same,TGI,CAKI-1 renal,> 100 µM
same,TGI,SW-620 colon,> 100 µM
same,TGI,HCC-2998 colon,44.5 µM
same,TGI,SK-OV-3 ovarian,> 100 µM
same,TGI,MDA-N,> 61.8 µM
same,TGI,LOX IMVI melanoma,> 100 µM
same,TGI,NCI-H23 lung,> 100 µM
same,TGI,NCI/ADR-RES ovarian,> 100 µM
same,TGI,ACHN renal,> 100 µM
same,TGI,HOP-62 NSCLC,> 100 µM
same,TGI,UO-31 renal,> 100 µM
same,TGI,HCT-116 colon,> 100 µM
same,TGI,DU-145 prostate,> 100 µM
same,TGI,A549 NSCLC,> 100 µM
same,TGI,A498 renal,> 100 µM
same,TGI,EKVX NSCLC,> 100 µM
same,TGI,SR leukemia,> 79.8 µM
same,TGI,MOLT-4 leukemia,> 100 µM
same,TGI,SF-268 CNS,> 100 µM
same,TGI,HT29 colon,> 100 µM
same,TGI,OVCAR-3 ovarian,> 59.7 µM
same,TGI,SK-MEL-2 melanoma,43.6 µM
same,TGI,IGROV1 ovarian,> 100 µM
same,TGI,SF-539 CNS,> 44.5 µM
same,TGI,HCT-15 colon,> 100 µM
same,TGI,SK-MEL-5 melanoma,39.6 µM
same,TGI,SN12C renal,> 100 µM
same,TGI,KM12 colon,> 100 µM
same,TGI,786-0 renal,> 100 µM
same,TGI,TK-10 renal,> 67.3 µM
same,TGI,MALME-3M melanoma,> 63.4 µM
same,TGI,MDA-MB-435,45.5 µM
same,TGI,HS 578T breast,> 100 µM
same,TGI,NCI-H522 lung,> 79.5 µM
same,TGI,NCI-H226 lung,> 100 µM
same,TGI,SNB-75 CNS,> 76.5 µM
same,TGI,CCRF-CEM leukemia,2.95 µM
same,TGI,T-47D breast,> 58.8 µM
same,TGI,SNB-19 CNS,> 100 µM
same,TGI,HL-60(TB) leukemia,55.2 µM
same,TGI,UACC-257 melanoma,11 µM
same,TGI,NCI-H460 lung,35 µM
same,TGI,OVCAR-5 ovarian,> 100 µM
same,TGI,HOP-92 NSCLC,> 92.3 µM
same,TGI,RPMI-8226 leukemia,7.79 µM
same,TGI,M14 melanoma,> 100 µM
same,TGI,RXF 393 renal,> 83.4 µM
same,TGI,BT-549 breast,> 100 µM
same,TGI,MCF7 breast,> 100 µM
same,TGI,MDA-MB-231 breast,98.4 µM
same,TGI,PC-3 prostate,60.6 µM
same,TGI,U251 CNS,21 µM
same,TGI,SK-MEL-28 melanoma,38.4 µM
